Where two headings read alike, the source gives them in different places.

21 compounds from patent US7528164B2, “Substituted 4-aryl-4h-pyrrolo[2,3-h]chromenes and analogs as activators of caspases and inducers of apoptosis and the use thereof” (Cytovia, Inc., priority 2002, dated 2009) can be followed below.

In one assay the test system is T-47D. Kind of assay: Caspase cascade activation assay in T-47D cells (N-(Ac-DEVD)-N'-ethoxycarbonyl-R110 fluorogenic substrate). The conditions noted are these: T-47D human breast cancer cells, 24 h incubation; for Caspase activity (Ratio): ratio of net RFU of test compound to control; for EC50: sigmoidal dose-response, read-out: Caspase potency EC50. Type of assay: cell-based. How it is done: (§1) Human breast cancer cell lines T-47D and ZR-75-1 were grown according to media component mixtures designated by American Type Culture Collection+10% FCS (Invitrogen Corporation), in a 5% CO2-95% humidity incubator at 37° C. T-47D and ZR-75-1 cells were maintained at a cell density between 30 and 80% confluency at a cell density of 0.1 to 0.6×10^6 cells/mL. Cells were harvested at 600×g and resuspended at 0.65×10^6 cells/mL into appropriate media+10% FCS. An aliquot of 45 μl of cells was added to a well of a 96-well microtiter plate containing 5 μl of a 10% DMSO in RPMI-1640 media solution containing about […] of 2-amino-3-cyano-4-(5-methyl-pyridin-3-yl)-7-methyl-4H-pyrrolo[2,3-h]chromene (Example 10) or other test compound (0.016 to 1 μM final). An aliquot of 45 μl of cells was added to a well of a 96-well microtiter plate containing 5 μl of a 10% DMSO in RPMI-1640 media solution without test compound as the control sample. The samples were mixed by agitation and then incubated at 37° C. for 24 h in a 5% CO2-95% humidity incubator. After incubation, the samples were removed from the incubator and 50 μl of a solution containing 20 μM of N-(Ac-DEVD)-N′-ethoxycarbonyl-R110 (SEQ ID No:1) fluorogenic substrate (Cytovia, Inc.; U.S. Pat. No. 6,335,429), 20% sucrose (Sigma), 20 mM DTT (Sigma), 200 mM NaCl (Sigma), 40 mM Na PIPES buffer pH 7.2 (Sigma), and 500 μg/ml lysolecithin (Calbiochem) was added. The samples were mixed by agitation and incubated at room temperature. Using a fluorescent plate reader (Model 1420 Wallac Instruments), an initial reading (T=0) was made approximately 1-2 min after addition of the substrate solution, employing excitation at 485 nm and emission at 530 nm, to determine the background fluorescence of the control sample. After the 3 h incubation, the samples were read for fluorescence as above (T=3 h).
(§2) The Relative Fluorescence Unit values (RFU) were used to calculate the sample readings as follows: RFU(T=3h)−Control RFU(T=0)=Net RFU(T=3h) The activity of caspase cascade activation was determined by the ratio of the net RFU value for 2-amino-3-cyano-4-(5-methyl-pyridin-3-yl)-7-methyl-4H-pyrrolo[2,3-h]chromene or other test compound to that of control samples. The EC50 (nM) was determined by a sigmoidal dose-response calculation (Prism 2.0, GraphPad Software Inc.).

The subject of another assay is ZR-75-1. Kind of assay: Caspase cascade activation assay in ZR-75-1 cells (N-(Ac-DEVD)-N'-ethoxycarbonyl-R110 fluorogenic substrate). In kind it is cell-based. To be noted: ZR-75-1 human breast cancer cells, 24 h incubation; for Caspase activity (Ratio): ratio of net RFU of test compound to control; for EC50: sigmoidal dose-response, read-out: Caspase potency EC50. How it is done: as §1, §2

In the case of “2-Amino-3-cyano-4-(5-methyl-pyridin-3-yl)-7-methyl-4H-imidazo[4,5-h]chromene [Example 14]”, in the assay with T-47D, the “Caspase activity (Ratio)” value amounted to 8.0 and the EC50 was found to be 19.8 nM. Besides, in the assay on ZR-75-1, the “Caspase activity (Ratio)” value turned out to be 9.9 and the EC50 came out at 10.4 nM.
The corresponding values for “2-Amino-4-(3-bromo-4,5-dimethoxyphenyl)-3-cyano-7-(2-diethyl-amino-ethyl)-4H-pyrrolo[2,3-h]chromene [Example 6]” are 3.3, 413 nM, 7.0 and 259 nM.
The corresponding values for “2-Amino-4-(3-bromo-4,5-dimethoxyphenyl)-3-cyano-7-methyl-4H-imidazo[4,5-h]chromene [Example 12]” are 5.4, 1.6 nM, 8.5 and 1.5 nM.
For “2-Amino-4-(5-bromo-pyridin-3-yl)-3-cyano-7-methyl-4H-imidazo[4,5-h]chromene [Example 13]” the same measures were 8.8, 6.8 nM, 8.0 and 3.2 nM.
As for `Cn1ccc2c3c(ccc21)C(c1cncc(C#N)c1)C(C#N)=C(N)O3` (stereo not drawn) [Example 1, 2-Amino-4-(5-cyano-pyridin-3-yl)-3-cyano-7-methyl-4H-pyrrolo[2,3-h]chromene], the EC50 is 25.5 nM in the assay on T-47D (T47D) and 6.5 nM with ZR-75-1. Besides, the “Caspase activity (Ratio)” value with T-47D stood at 8.3; with ZR-75-1, 5.2.
For `Cc1cncc(C2C(C#N)=C(N)Oc3c2ccc2c3ccn2C)n1` (stereo not drawn) [Example 2, 2-Amino-3-cyano-7-methyl-4-(6-methyl-pyrazin-2-yl)-4H-pyrrolo[2,3-h]chromene] the same measures were 110 nM, 41.3 nM, 8.2 and 4.3.
Regarding `Cn1ccc2c3c(ccc21)C(c1cnc2ccccc2n1)C(C#N)=C(N)O3` (stereo not drawn) [Example 3, 2-Amino-3-cyano-7-methyl-4-(quinoxalin-2-yl)-4H-pyrrolo[2,3-h]-chromene], the EC50 with T-47D (T47D) is 58.1 nM; in the assay with ZR-75-1, 27.8 nM. For the same compound, the “Caspase activity (Ratio)” value in the assay on T-47D amounted to 5.6; in the assay with ZR-75-1, 3.1.
The corresponding values for `CCn1ccc2c3c(ccc21)C(c1cc(Br)c(OC)c(OC)c1)C(C#N)=C(N)O3` (stereo not drawn) [Example 4, 2-Amino-4-(3-bromo-4,5-dimethoxyphenyl)-3-cyano-7-ethyl-4H-pyrrolo[2,3-h]chromene] are 14 nM, 13.1 nM, 6.6 and 9.2.
Consider `COc1cc(C2C(C#N)=C(N)Oc3c2ccc2c3ccn2CC2CC2)cc(Br)c1OC` (stereo not drawn) [Example 5, 2-Amino-4-(3-bromo-4,5-dimethoxyphenyl)-3-cyano-7-cyclopropylmethyl-4H-pyrrolo[2,3-h]chromene], for which the EC50 in the assay on T-47D (T47D) was found to be 55.3 nM; in the assay with ZR-75-1, 28.6 nM. Further, the “Caspase activity (Ratio)” value in the assay on T-47D stood at 4.0; in the assay with ZR-75-1, 3.0.
For `Cn1ccc2c3c(ccc21)C(c1cncc(Cl)c1)C(C#N)=C(N)O3` (stereo not drawn) [Example 7, 2-Amino-4-(5-chloro-pyridin-3-yl)-3-cyano-7-methyl-4H-pyrrolo[2,3-h]chromene] the same measures were 6.7 nM, 2.7 nM, 5.1 and 13.1.
For `Cn1ccc2c3c(ccc21)C(c1c[nH]c2ccccc12)C(C#N)=C(N)O3` (stereo not drawn) [Example 8, 2-Amino-3-cyano-4-(indol-3-yl)-7-methyl-4H-pyrrolo[2,3-h]chromene] the same measures were 58.7 nM, 55 nM, 3.8 and 8.9.
In the case of `Cn1ccc2c3c(ccc21)C(c1cnc(O)c(Cl)c1)C(C#N)=C(N)O3` (stereo not drawn) [Example 9, 2-Amino-4-(5-chloro-6-hydroxy-pyridin-3-yl)-3-cyano-7-methyl-4H-pyrrolo[2,3-h]chromene], the EC50 in the assay on T-47D (T47D) amounted to 14.2 nM; in the assay with ZR-75-1 it was 6.2 nM. Further, the “Caspase activity (Ratio)” value is 8.3 in the assay on T-47D and 7.8 in the assay with ZR-75-1.
`Cc1cncc(C2C(C#N)=C(N)Oc3c2ccc2c3ccn2C)c1` (stereo not drawn) [Example 10, 2-Amino-3-cyano-4-(5-methyl-pyridin-3-yl)-7-methyl-4H-pyrrolo[2,3-h]chromene]: the values for the 50% effective concentration (EC50) in the assay with T-47D (T47D) and in the assay on ZR-75-1 were 2.3 nM and 1.6 nM, respectively. Further, the “Caspase activity (Ratio)” value in the assay with T-47D amounted to 3.1; with ZR-75-1, 6.6.
As for `Cn1ccc2c3c(ccc21)C(c1cncc(Br)c1)C(C#N)=C(N)O3` (stereo not drawn) [Example 11, 2-Amino-4-(5-bromo-pyridin-3-yl)-3-cyano-7-methyl-4H-pyrrolo [2,3-h]chromene], the EC50 stood at 2.9 nM with T-47D (T47D) and 1.1 nM in the assay on ZR-75-1. Besides, the “Caspase activity (Ratio)” value with T-47D worked out at 4.6; with ZR-75-1, 4.1.
The corresponding values for `COc1cc(C2C(C#N)=C(N)Oc3c2ccc2c3ccn2C)cc(Br)c1OC` (stereo not drawn) [Example 16, 2-Amino-4-(3-bromo-4,5-dimethoxyphenyl)-3-cyano-7-methyl-4H-pyrrolo[2,3-h]chromene] are 1.6 nM, 1 nM, 8.1 and 11.7.
On to `COc1cc(C2C(C#N)=C(N)Oc3c2ccc2c3ccn2CO)cc(Br)c1OC` (stereo not drawn) [Example 17, 2-Amino-4-(3-bromo-4,5-dimethoxyphenyl)-3-cyano-7-hydroxymethyl-4H-pyrrolo[2,3-h]chromene], for which the values for the EC50 in the assay with T-47D (T47D) and in the assay with ZR-75-1 were 2.1 nM and 1.6 nM, respectively. Moreover, the “Caspase activity (Ratio)” value in the assay with T-47D stood at 7.2; in the assay with ZR-75-1 it was 3.3.
The corresponding values for `COc1cc(C2C(C#N)=C(N)Oc3c2ccc2c3ccn2C)cc(Br)c1O` (stereo not drawn) [Example 18, 2-Amino-4-(3-bromo-4-hydroxy-5-methoxyphenyl)-3-cyano-7-methyl-4H-pyrrolo[2,3-h]chromene] are 6 nM, 3.4 nM, 4.0 and 6.6.
Take `COc1cc(C2C(C#N)=C(N)Oc3c2ccc2c3ccn2CC2CO2)cc(Br)c1OC` (stereo not drawn) [Example 19, 2-Amino-4-(3-bromo-4,5-dimethoxyphenyl)-3-cyano-7-oxiranylmethyl-4H-pyrrolo[2,3-h]chromene]: the EC50 in the assay on T-47D (T47D) came to 231 nM; in the assay with ZR-75-1, 107 nM. Further, the “Caspase activity (Ratio)” value in the assay on T-47D is recorded as 10.2; with ZR-75-1 it was 11.7.
The corresponding values for `Cc1cncc(C2C(C#N)=C(N)Oc3c2ccc2c3ccn2CO)c1` (stereo not drawn) [Example 20, 2-Amino-3-cyano-4-(5-methyl-pyridin-3-yl)-7-hydroxymethyl-4H-pyrrolo[2,3-h]chromene] are 3.7 nM, 2.4 nM, 4.7 and 6.3.
The corresponding values for `N#CC1=C(N)Oc2c(ccc3c2ccn3CO)C1c1cncc(Br)c1` (stereo not drawn) [Example 21, 2-Amino-4-(5-bromo-pyridin-3-yl)-3-cyano-7-hydroxymethyl-4H-pyrrolo[2,3-h]chromene] are 3 nM, 1.6 nM, 2.2 and 4.4.
For `COc1cc(C2C(C#N)=C(N)Oc3c2ccc2c3ccn2C)cc(Br)c1OC(C)=O` (stereo not drawn) [Example 22, 2-Amino-4-(4-acetoxy-3-bromo-5-methoxyphenyl)-3-cyano-7-methyl-4H-pyrrolo[2,3-h]chromene] the same measures were 3.4 nM, 2 nM, 5.3 and 7.2.

The EC50 is the midpoint of the concentration-response curve.
